Experiments:
[1] = test system: LTB4 receptor; assay: TXB2 release from guinea pig eosinophils stimulated with LTB4 (LTB4 receptor antagonist activity); format: cell-based; settings: 10^−3 M test compound (37.5 μl) added to 300 μl cell suspension, then 10^−7 M LTB4 (37.5 μl), 37° C. 15 min, positive control 100, negative control 0, N.D. = TXB2 concentration at measurement limit or less
Description: The LTB4 receptor antagonist activity of the test compound was examined using, as an index, thromboxane B2 (TXB2) released when stimulating eosinophil of guinea pig with LTB4.
Based on the method described in Japanese Journal of Pharmacology, vol. 70, p. 337-345 (1996) etc., eosinophils of guinea pig were prepared. A cell suspension (300 μl, 1.25×10^6 cells/ml) was placed in a 5 ml polypropylene test tube and, after incubation at 37° C. for 5 min., 10^−3 M test compound (37.5 μl) dissolved in 0.1% DMSO aqueous solution was added and the cells were continuously cultured for 5 min. Then, 10^−7 M LTB4 (37.5 μl) was added to induce the reaction and the cells were incubated at 37° C. for 15 min. The reaction was quenched in ice water, and the culture was centrifuged at 4° C., 3000 rpm for 10 min. The obtained supernatant was prepared as a sample for TXB2 measurement, and preserved at −80° C. before use for the measurement. The quantitation of TXB2 was performed using a TXB2 enzyme immunoassay kit (manufactured by Cayman Chemical Company). The release ratio (%) of TXB2 from the eosinophils was determined by the following formula: release ratio (%) of TXB2=[(average value of test compound administration group−average value of negative control group)/(average value of positive control group−average value of negative control group)]×100
As used herein, the positive control group means a group to which stimulation with LTB4 was applied but the same volume of a medium was given instead of the test compound, and the negative control group means a group to which stimulation with LTB4 was not applied, the same volume of a medium was given instead of LTB4, and the same volume of a medium was given instead of the test compound. When the release ratio of TXB2 is smaller than 0, it means that the measured TXB2 concentration was lower than that of the negative control group. When the TXB2 concentration in the sample was the measurement limit or less, N.D. is indicated.

Structure (SMILES)	melting point	Amount of TXB2 release (%) [1]
CCOC(=O)c1oc2ccccc2c1NC(=O)/C=C/c1ccccc1 [Example 119, Ethyl (E)-3-(3-phenylacryloylamino)benzofurane-2-carboxylate]	162.4 to 163.8 °C	9.8%
CC(=O)c1cc2c(/C(C)=C/C(=O)N3CCOCC3)ccc(OC(c3ccccc3)c3ccccc3)c2o1 [Example 7, (E)-3-(2-acetyl-7-benzhydryloxybenzofuran-4-yl)-1-morpholino-2-buten-1-one]	167 to 169.3 °C	9.89%
CC(=O)c1cc2c(/C(C)=C/C(=O)N3CCN(c4ccccc4)CC3)ccc(OC(C)c3ccccc3)c2o1 (stereo not shown) [Example 5, (E)-3-[2-acetyl-7-(1-phenylethoxy)benzofuran-4-yl]-1-(4-phenylpiperazin-1-yl)-2-buten-1-one]	79 to 84.6 °C	81.6%
COc1cccc(NC(=O)/C=C(/C)c2cc3c(S(=O)(=O)NCCc4ccc(OC)c(OC)c4)ccc(OCCCCl)c3o2)c1 [Example 52, (Z)-3-{7-(3-chloropropoxy)-4-[2-(3,4-dimethoxyphenyl)ethylsulfamoyl]benzofuran-2-yl}-N-(3-methoxyphenyl)-2-butenamide]	146.1 to 150 °C	60.6%
COc1ccc(CCNC(=O)/C=C/C=C(\Cl)c2cc3cccc(OC)c3o2)cc1OC [Example 56, (2E,4Z)-5-chloro-5-(7-methoxybenzofuran-2-yl)-penta-2,4-dienoic acid [2-(3,4-dimethoxyphenyl)ethyl]amide]	151.4 to 153.3 °C	52.39%
COc1cccc(NC(=O)/C=C(\C)c2cc3c(S(=O)(=O)NCCc4ccc(OC)c(OC)c4)ccc(OCCCCl)c3o2)c1 [Example 51, (E)-3-{7-(3-chloropropoxy)-4-[2-(3,4-dimethoxyphenyl)ethylsulfamoyl]benzofuran-2-yl}-N-(3-methoxyphenyl)-2-butenamide]	162.2 to 164.5 °C	38.93%
CCN(CC)C(=O)/C=C(\C)c1ccc2oc(C(C)=O)c(NC(=O)/C(C#N)=C(/C)O)c2c1 [Example 94, N-{2-acetyl-5-[(E)-2-diethylcarbamoyl-1-methylvinyl]benzofuran-3-yl}-2-cyano-3-hydroxy-(Z)-2-butenamide]	169.3 to 171 °C	−0.1%
CC(=O)c1oc2ccc(/C(C)=C/C(=O)N3CCN(c4ccccc4)CC3)cc2c1NC(=O)c1cnoc1C [Example 75, (E)-N-{2-acetyl-5-[1-methyl-3-oxo-3-(4-phenylpiperazin-1-yl)-1-propenyl]benzofuran-3-yl}-5-methylisoxazole-4-carboxamide]	201.5 to 204.4 °C	27.03%
COc1cccc(NC(=O)/C=C/C=C(\Cl)c2cc3cc(Br)ccc3o2)c1 [Example 54, (2E,4Z)-5-(5-bromobenzofuran-2-yl)-5-chloropenta-2,4-dienoic acid (3-methoxyphenyl)amide]	204.3 to 207.1 °C	60.6%
CC(=O)c1oc2ccc(/C(C)=C/C(=O)N3CCN(Cc4ccccc4)CC3)cc2c1N [Example 19, (E)-3-(2-acetyl-3-aminobenzofuran-5-yl)-1-(4-benzylpiperazin-1-yl)-2-buten-1-one]	144 to 148.3 °C	48.63%
CCOC(=O)c1ccc(OC)c(NC(=O)/C=C(\C)c2ccc3oc(C(C)=O)c(N)c3c2)c1 [Example 16, Ethyl (E)-3-[3-(2-acetyl-3-aminobenzofuran-5-yl)-2-butenoylamino]-4-methoxybenzoate]	189 to 193 °C	56.57%
CCOC(=O)CCCOc1cccc2cc(/C(C)=C/C(=O)Nc3ccc(OC)cc3)oc12 [Example 28, Ethyl (E)-4-{2-[2-(4-methoxyphenylcarbamoyl)-1-methylvinyl]benzofuran-7-yloxy}butyrate]	141.3 to 141.5 °C	−0.23%
CC(NC(=O)/C=C/c1ccccc1)c1cc2cccc(OCCCCl)c2o1 (stereo not shown) [Example 131, (E)-N-{1-[7-(3-chloropropoxy)benzofuran-2-yl]ethyl}-3-phenylacrylamide]	132.2 to 139.7 °C	2.14%
CCN(CC)C(=O)/C=C(\C)c1ccc(OCC(=O)c2ccc3c(c2)OCO3)c2oc(C(C)=O)cc12 [Example 13, (E)-3-[2-acetyl-7-(2-benzo[1,3]dioxol-5-yloxoethoxy)benzofuran-4-yl]-N,N-diethyl-2-butenamide]	142 to 144 °C	31.8%
CCOC(=O)c1oc2ccc(Br)cc2c1NC(=O)/C(C#N)=C(/C)O [Example 97, Ethyl (Z)-5-bromo-3-(2-cyano-3-hydroxy-2-butenoylamino)benzofurane-2-carboxylate]	186.3 to 187.2 °C	−0.12%
C/C=C/C(=O)Nc1c(C#N)oc2ccc(Br)cc12 [Example 117, (E)-N-(5-bromo-2-cyanobenzofuran-3-yl)-2-butenamide]	206.5 to 208.2 °C	54.95%
COc1ccc2c(NC(=O)/C=C/c3ccccc3)c(C(C)=O)oc2c1 [Example 120, (E)-N-(2-acetyl-6-methoxybenzofuran-3-yl)-3-phenylacrylamide]	142 to 144.5 °C	1.32%
CCN(CC)C(=O)/C=C(\C)c1ccc2oc(C(C)=O)c(NC(=O)Cc3ccc(OC)cc3)c2c1 [Example 21, (E)-3-{2-acetyl-3-[2-(4-methoxyphenyl)acetylamino]-benzofuran-5-yl}-N,N-diethyl-2-butenamide]	121.8 to 122.3 °C	56.57%
COc1ccc(CCNC(=O)/C=C/C=C(\Cl)c2cc3cc(Br)ccc3o2)cc1OC [Example 55, (2E,4Z)-5-(5-bromobenzofuran-2-yl)-5-chloropenta-2,4-dienoic acid [2-(3,4-dimethoxyphenyl)ethyl]amide]	161.3 to 162.1 °C	53.91%
COc1cccc(NC(=O)/C=C/C=C(\Cl)c2cc3cccc(OC)c3o2)c1 [Example 57, (2E,4Z)-5-chloro-5-(7-methoxybenzofuran-2-yl)penta-2,4-dienoic acid (3-methoxyphenyl)amide]	194.3 to 197.3 °C	78.01%
CC(=O)c1oc2ccc(Br)cc2c1NC(=O)/C=C/c1ccccc1 [Example 114, (E)-N-(2-acetyl-5-bromobenzofuran-3-yl)-3-phenylacrylamide]	180.2 to 181.1 °C	51.42%
CC(=O)c1cc2c(/C(C)=C/C(=O)N3CCN(Cc4ccccc4)CC3)ccc(OC(C)c3ccccc3)c2o1 (stereo not shown) [Example 10, (E)-3-[2-acetyl-7-(1-phenylethoxy)benzofuran-4-yl]-1-(4-benzylpiperazin-1-yl)-2-buten-1-one]	196 to 202.1 °C	23.43%
CC(=O)c1cc2c(/C(C)=C/C(=O)N3CCN(c4ccccc4)CC3)ccc(OC(c3ccccc3)c3ccccc3)c2o1 [Example 6, (E)-3-(2-acetyl-7-benzhydryloxybenzofuran-4-yl)-1-(4-phenylpiperazin-1-yl)-2-buten-1-one]	152 to 160 °C	38.93%

From patent publication US7638540B2, “Benzofuran compound and medicinal composition containing the same” (The New Industry Research Organization, priority 2003, dated 2009)
